The numbers were not newly measured in patent US11866384B2, “Compositions and their use in agricultural applications” (SYNSUS PRIVATE LABEL PARTNERS, LLC, priority 2018, dated 2024), which cites them from elsewhere.

As for dicyandiamide, the solubility in water entry is reported as “about 41 grams per liter”.
